Measured values: publication PMC10310857 (Nature Communications, 2023)

Target: Pst_13661 (Puccinia striiformis f. sp. tritici, UniProt A0A0L0V0Y3, T32S)
Format: biochemical
Conditions: 100 µM

## O=C(NO)c1ccccc1 [Compound 1, benzohydroxamic acid]
  Inhibition Rate Pst_13661 Mean: 100.8%
